Reference: US9695155B2, “Herbicidal substituted pyrimidinyloxy benzene compounds” (E. I. DU PONT DE NEMOURS AND COMPANY, priority 2013, dated 2017)

Legend:
barnyardgrass [1] = test: Test A preemergence; type: in vivo, Echinochloa crus-galli; conditions: Echinochloa crus-galli, pre-emergence, 240 h
Procedure, shortened: (§1)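 Greenhouse pot test, loam/sand soil. Formulation: non-phytotoxic solvent mix plus surfactant. Pre: directed spray onto soil after sowing. Post: plants at 1–2 leaf, 2–10 cm. Rated visually vs untreated controls at ~10 d, 0 (no effect) to 100 (complete control).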

large (Lg) crabgrass [2] = test: Test A preemergence; type: in vivo, Digitaria sanguinalis; conditions: Digitaria sanguinalis, pre-emergence, 240 h
Procedure, shortened: as §1

morningglory [3] = test: Test A preemergence; type: in vivo, Ipomoea spp.
Procedure, shortened: as §1

corn = test: Test A preemergence; type: in vivo, Zea mays; conditions: Zea mays, pre-emergence, 240 h
Procedure, shortened: as §1

large (Lg) crabgrass [4] = test: Test A postemergence; type: in vivo, Digitaria sanguinalis; conditions: Digitaria sanguinalis, post-emergence, 240 h
Procedure, shortened: as §1

morningglory [5] = test: Test A postemergence; type: in vivo, Ipomoea spp.; conditions: Ipomoea, post-emergence, 240 h
Procedure, shortened: as §1

wheat = test: Test A postemergence; type: in vivo, Triticum aestivum; conditions: Triticum aestivum, post-emergence, 240 h
Procedure, shortened: as §1

Heteranthera limosa = test: Test B flooded paddy test; type: in vivo; conditions: Heteranthera limosa, Flood, 250 g ai/ha; 0 to 100 scale where 0 is no effect and 100 is complete control; read-out: Plant response rating, Ducksalad
Procedure, shortened: (§2)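 Post-emergence paddy-water application at the 2-leaf stage, with 3 cm flood kept for the whole test. Response was judged visually relative to controls after 13 to 15 greenhouse days, 0 indicating no effect and 100 complete control.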

barnyardgrass [6] = test: Test B flooded paddy test; type: in vivo, Echinochloa crus-galli; conditions: Echinochloa crus-galli; Flood, 250 g ai/ha; 0 to 100 scale where 0 is no effect and 100 is complete control; read-out: Plant response rating, Barnyardgrass
Procedure, shortened: as §2

blackgrass [7] = test: Test C preemergence; type: in vivo, Alopecurus myosuroides; conditions: Alopecurus myosuroides, pre-emergence
Procedure, shortened: (§3)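 Rated visually on 0–100 (100 = complete control) after 13–15 days under glass. Treatments went onto freshly seeded loam/sand soil or onto emerged plants at the 1- to 4-leaf stage, using a surfactant-containing solvent formulation.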

Italian ryegrass = test: Test C preemergence; type: in vivo, Lolium multiflorum; conditions: Lolium multiflorum, pre-emergence
Procedure, shortened: as §3

wheat, winter = test: Test C preemergence; type: in vivo, Triticum aestivum; conditions: Triticum aestivum, pre-emergence
Procedure, shortened: as §3

large (Lg) crabgrass [8] = test: Test C preemergence; type: in vivo, Digitaria sanguinalis; conditions: Digitaria sanguinalis, pre-emergence
Procedure, shortened: as §3

blackgrass [9] = test: Test C postemergence; type: in vivo, Alopecurus myosuroides; conditions: Alopecurus myosuroides, post-emergence
Procedure, shortened: as §3

johnsongrass = test: Test C postemergence; type: in vivo, Sorghum halepense; conditions: Sorghum halepense, post-emergence
Procedure, shortened: as §3

wild oat = test: Test C postemergence; type: in vivo, Avena fatua; conditions: Avena fatua, post-emergence
Procedure, shortened: as §3

[10] = 125 g ai/ha, 0 to 100 scale where 0 is no effect and 100 is complete control, read-out: Plant response rating, Crabgrass, Large
[11] = 125 g ai/ha, 0 to 100 scale where 0 is no effect and 100 is complete control

`N#Cc1cccc(Oc2ncc(Br)cn2)c1-n1cc(C(F)(F)F)cn1` [Compound 59, 3-[(5-bromo-2-pyrimidinyl)oxy]-2-[4-(trifluoromethyl)-1H-pyrazol-1-yl]benzonitrile] was tested, and the pest or weed control at 125 g/ha (barnyardgrass [1]; 125 g ai/ha, 0 to 100 scale where 0 is no effect and 100 is complete control, read-out: Plant response rating, Barnyardgrass) was 80%, the pest or weed control at 500 g/ha (barnyardgrass [1]; 500 g ai/ha, 0 to 100 scale, 0 no effect, 100 complete control, approx. 10 days, read-out: Barnyardgrass plant response rating) was 100% and the pest or weed control at 125 g/ha (large (Lg) crabgrass [2]; [10]) was 100%. The pest or weed control at 500 g/ha (large (Lg) crabgrass [2]; 500 g ai/ha, 0 to 100 scale, 0 no effect, 100 complete control, approx. 10 days, read-out: Crabgrass, Large plant response rating) was 100%, the “Plant response rating, Morningglory” value (morningglory [3]; [11]) was 80 and the pest or weed control at 500 g/ha (morningglory [3]; Ipomoea, pre-emergence, 240 h, 500 g ai/ha, 0 to 100 scale, 0 no effect, 100 complete control, approx. 10 days, read-out: Morningglory plant response rating) was 100%. The Corn plant response rating (crop injury, 0 = no effect, 100 = complete kill) at 125 g/ha (corn; [11]) was 20%, the plant injury at 500 g/ha (corn; 500 g ai/ha, 0 to 100 scale, 0 no effect, 100 complete control, approx. 10 days, read-out: Corn plant response rating) was 30% and the pest or weed control at 125 g/ha (large (Lg) crabgrass [4]; [10]) was 100%. The pest or weed control at 500 g/ha (large (Lg) crabgrass [4]; 500 g ai/ha, 0 to 100 scale, 0 no effect, 100 complete control, read-out: Plant response rating Crabgrass, Large) was 100%, the pest or weed control at 125 g/ha (morningglory [5]; 125 g ai/ha, 0 to 100 scale where 0 is no effect and 100 is complete control, read-out: Plant response rating, Morningglory) was 90% and the pest or weed control at 500 g/ha (morningglory [5]; 500 g ai/ha, 0 to 100 scale, 0 no effect, 100 complete control, read-out: Plant response rating Morningglory) was 100%. The plant injury at 125 g/ha (wheat; 125 g ai/ha, 0 to 100 scale where 0 is no effect and 100 is complete control, read-out: Plant response rating, Wheat) was 70%, the plant injury at 500 g/ha (wheat; 500 g ai/ha, 0 to 100 scale, 0 no effect, 100 complete control, read-out: Plant response rating Wheat) was 100% and the pest or weed control at 250 g/ha (Heteranthera limosa) was 80%. It also gave a pest or weed control at 250 g/ha (barnyardgrass [6]) of 40%, a pest or weed control at 62 g/ha (blackgrass [7]; 62 g ai/ha, preemergence, scale 0 (no effect) to 100 (complete control), read-out: Blackgrass plant response rating) of 85% and a pest or weed control at 125 g/ha (blackgrass [7]; 125 g ai/ha, preemergence, scale 0 (no effect) to 100 (complete control), read-out: Blackgrass plant response rating) of 90%. The pest or weed control at 250 g/ha (blackgrass [7]; 250 g ai/ha, preemergence, scale 0 (no effect) to 100 (complete control), read-out: Blackgrass plant response rating) was 90%, the pest or weed control at 31 g/ha (blackgrass [7]; Preemergence, 31 g ai/ha, scale 0 to 100, 0 no effect, 100 complete control, read-out: Plant response rating, Blackgrass) was 5% and the pest or weed control at 62 g/ha (Italian ryegrass; 62 g ai/ha, preemergence, scale 0 (no effect) to 100 (complete control), read-out: Ryegrass, Italian plant response rating) was 85%. For the same compound, the pest or weed control at 125 g/ha (Italian ryegrass; 125 g ai/ha, preemergence, scale 0 (no effect) to 100 (complete control), read-out: Ryegrass, Italian plant response rating) was 90%, the pest or weed control at 250 g/ha (Italian ryegrass; 250 g ai/ha, preemergence, scale 0 (no effect) to 100 (complete control), read-out: Ryegrass, Italian plant response rating) was 90% and the pest or weed control at 31 g/ha (Italian ryegrass; Preemergence, 31 g ai/ha, scale 0 to 100, 0 no effect, 100 complete control, read-out: Plant response rating, Ryegrass, Italian) was 50%. For the same compound, the plant injury at 62 g/ha (wheat, winter; 62 g ai/ha, preemergence, scale 0 (no effect) to 100 (complete control), read-out: Wheat plant response rating) was 50%, the plant injury at 125 g/ha (wheat, winter; 125 g ai/ha, preemergence, scale 0 (no effect) to 100 (complete control), read-out: Wheat plant response rating) was 85% and the plant injury at 250 g/ha (wheat, winter; 250 g ai/ha, preemergence, scale 0 (no effect) to 100 (complete control), read-out: Wheat plant response rating) was 90%. For the same compound, the plant injury at 31 g/ha (wheat, winter; Preemergence, 31 g ai/ha, scale 0 to 100, 0 no effect, 100 complete control, read-out: Plant response rating, Wheat) was 0%, the pest or weed control at 62 g/ha (large (Lg) crabgrass [8]; 62 g ai/ha, preemergence, scale 0 (no effect) to 100 (complete control), read-out: Crabgrass, Large plant response rating) was 100% and the pest or weed control at 125 g/ha (large (Lg) crabgrass [8]; 125 g ai/ha, preemergence, scale 0 (no effect) to 100 (complete control), read-out: Crabgrass, Large plant response rating) was 100%. It also gave a pest or weed control at 250 g/ha (large (Lg) crabgrass [8]; 250 g ai/ha, preemergence, scale 0 (no effect) to 100 (complete control), read-out: Crabgrass, Large plant response rating) of 100%, a pest or weed control at 31 g/ha (large (Lg) crabgrass [8]; Preemergence, 31 g ai/ha, scale 0 to 100, 0 no effect, 100 complete control, read-out: Plant response rating, Crabgrass, Large) of 100% and a pest or weed control at 125 g/ha (blackgrass [9]; 125 g ai/ha, postemergence, read-out: Plant response rating (0 to 100), Blackgrass) of 25%. It also gave a pest or weed control at 250 g/ha (blackgrass [9]; 250 g ai/ha, postemergence, read-out: Plant response rating (0 to 100), Blackgrass) of 40%, a pest or weed control at 31 g/ha (blackgrass [9]; Postemergence, 31 g ai/ha, scale 0 to 100 (0 no effect, 100 complete control), 13 to 15 days, read-out: Plant response rating, Blackgrass) of 5% and a pest or weed control at 62 g/ha (blackgrass [9]; Postemergence, 62 g ai/ha, scale 0 to 100 (0 no effect, 100 complete control), read-out: Plant response rating, Blackgrass) of 10%. The pest or weed control at 125 g/ha (johnsongrass; 125 g ai/ha, postemergence, read-out: Plant response rating (0 to 100), Johnsongrass) was 35%, the pest or weed control at 250 g/ha (johnsongrass; 250 g ai/ha, postemergence, read-out: Plant response rating (0 to 100), Johnsongrass) was 85% and the pest or weed control at 31 g/ha (johnsongrass; Postemergence, 31 g ai/ha, scale 0 to 100 (0 no effect, 100 complete control), 13 to 15 days, read-out: Plant response rating, Johnsongrass) was 15%. For the same compound, the pest or weed control at 62 g/ha (johnsongrass; Postemergence, 62 g ai/ha, scale 0 to 100 (0 no effect, 100 complete control), read-out: Plant response rating, Johnsongrass) was 35%, the pest or weed control at 125 g/ha (wild oat; 125 g ai/ha, postemergence, read-out: Plant response rating (0 to 100), Oat, Wild) was 40% and the pest or weed control at 250 g/ha (wild oat; 250 g ai/ha, postemergence, read-out: Plant response rating (0 to 100), Oat, Wild) was 40%. The pest or weed control at 31 g/ha (wild oat; Postemergence, 31 g ai/ha, scale 0 to 100 (0 no effect, 100 complete control), 13 to 15 days, read-out: Plant response rating, Oat, Wild) was 25% and the pest or weed control at 62 g/ha (wild oat; Postemergence, 62 g ai/ha, scale 0 to 100 (0 no effect, 100 complete control), read-out: Plant response rating, Oat, Wild) was 25%.
